Reference: patent US20120021988A1, “METHODS FOR TREATING IMMUNE THROMBOCYTOPENIA” (priority 2007, published 2012)
Where “and” joins values, the source holds several entries; their conditions need not be identical. Equal values may be shown once. Ends that are not written are not given here.

How the values were obtained:
[1] = test system: FcγIIb; assay: FcγR reverse ELISA: inhibition of PAP immune complex binding (Table 2); details: PAP/peptide mixture on FcγR coated plates; positive control 1.394
Excerpt: (§1) For this reason, a “reverse ELISA” technique has been used to assess binding of the Fc region to ligands that bind to immune complexed IgG Fc. In a reverse ELISA, the enzyme (e.g., HRP) is not covalently conjugated to the Fc portion of the secondary antibody. Rather, a preformed immune complex of peroxidase-rabbit (or mouse) anti-peroxidase IgG (“PAP” complex) is used. […] In the reverse ELISA system, an Fc CH2-CH3 cleft binding ligand (e.g., purified human C1q) was bound to microwell plates. In the absence of competitor, PAP complexes bound to the immobilized ligand and the reaction between HRP and its substrate produces a signal. This signal was reduced by polypeptides and compounds that inhibited PAP binding to the immobilized ligand.
(§2) Once the reverse ELISA protocol was established using the C1q assay, the assay was redesigned using FcγIIa, FcγIIb and FcγIII in place of C1q. Highly purified FcγIIa, FcγIIb and FcγIII (R&D Systems, Minneapolis, Minn.) were immunoadsorbed onto plastic microwells. After optimizing the FcγR reverse ELISA system, simple competitive inhibition experiments using polypeptides provided herein were conducted to investigate their ability to inhibit binding of immune complexes to purified FcγR.
(§3) Falcon microtiter plates were coated with 1:10 dilutions of highly purified FcγIIa, FcγIIb and FcγIII and incubated for 24 hours. The plates were washed and then blocked with 5×BSA blocking solution (Alpha Diagnostic International, San Antonio, Tex.) for 24 hours. PAP immune complexes were formed as described in Example 1. PAP (100 μl) were pre-incubated with 100 μl of peptide for one hour. PAP/peptide mixtures were added to the FcγR coated plates and incubated for one hour. After washing, plates were incubated with ABTS substrate (Quidel Corp.) for 15 minutes and read at 405 nm.

[2] = test system: FcγIIIa; assay: as above; details: PAP/peptide mixture on FcγR coated plates; positive control 1.588
Excerpt: as §1, §2, §3

[3] = test system: FcγIIa (R131 allele); assay: as above; details: PAP/peptide mixture on FcγR coated plates; positive control 1.599
Excerpt: as §1, §2, §3

[4] = test system: human C1q; assay: Reverse ELISA: inhibition of PAP immune complex binding to C1q coated plates; details: for OD 405 nm: PAP pre-incubated with peptide or C1q one hour, C1q coated plates, lower OD = more inhibition, positive control 2.355
Excerpt: as §1
PAP complexes were formed mixing 2 μl of rabbit anti-peroxidase (Sigma Chemicals, St. Louis, Mo.; Cat. No. P7899) with 50 μl of peroxidase (Sigma-Aldrich, Cat. No. P6782) in 1 ml distilled water. PAP (100 μl) were pre-incubated with 100 μl of peptide for one hour, 100 μl were pre-incubated with 100 μl of peptide or human C1q (Quidel Corp., San Diego, Calif.) for one hour. The C1q/PAP and peptide/PAP mixtures (100 μl) were incubated with C1q coated plates for 30 minutes. After washing, plates were incubated with ATBS (Quidel Corp.) for 15 minutes and read at 405 nm.

[5] = test system: mice having induced ITP; assay: In vivo treatment of ITP induced by rabbit anti-platelet antibody, platelet counting by flow cytometry; design: species or system CD-1 mice; details: for Platelet counts, individual mice: intraperitoneal, 24 hours; for Platelet counts, mean: 3 mice, ITP alone mean 170.7, Nil 1016; for Effect on induced ITP: first experiment, Table 4, 10× and 100× molar
Experimental: Mice: CD-1 mice approximately 6-8 weeks of age were obtained from Charles River (Montreal). The animals were housed 3-5 per cage in filter-topped cages. The temperature and relative humidity were maintained at […] and 35-70%, respectively, and a 12 hour light/dark cycle was used. The mice were fed rodent chow and water ad libitum.
Anti-platelet antibodies to induce ITP: A rabbit anti-platelet antibody (Inter-Cell Technologies, Inc., Jupiter, Fla.; Cat. No. A31440) was used to induce ITP. Each mouse received 10 μl antibody-containing serum, diluted with 190 μl PBS for injection, such that the final injection volume was 200 μl for all groups injected with anti-platelet antibody.
On the day of use, one vial of rabbit anti-platelet antibody was removed from the freezer, placed in a 22° C. water bath, and shaken. The tube was checked every 30 seconds, and when it was completely thawed it was placed in a microcentrifuge and centrifuged at 10,000×g (11,000 rpm) for 10 minutes at 4° C. The supernatant fluid was transferred to a new tube and the pellet was discarded. The supernatant was placed on ice until used or diluted, as appropriate. Unused portions of the sera were discarded.
Therapeutic treatment of ITP: IVIg was used as a standard control treatment for the ITP induced by the rabbit anti-platelet antibody. The IVIg was Gamimmune® N, 10%. Treatment with IVIg consisted of an intraperitoneal injection of 50 mg (500 μl) IVIg, a dose that was equivalent to a dose of 2,000 mg/kg body weight.
Platelet enumeration: All mice were bled via the saphenous vein. 50 μL of blood were collected into 450 μL PBS/1% EDTA. The blood was further diluted in PBS/1% EDTA. Platelets were enumerated by flow cytometry with a Guava microcapillary cytometer (Guava EasyCyteMini, Guava Technologies, Inc., Hayward, Calif.), using forward scatter (FSC) versus side scatter (SSC) to gate platelets.
Peptides used to inhibit ITP: Peptides having the amino acid sequences set forth in SEQ ID NO:2 ([…]), SEQ ID NO:20 ([…]), and a control peptide in which Trp7, Val13 and Trp14 of SEQ ID NO:20 were replaced by alanines ([…]; SEQ ID NO:57) were tested for their ability to inhibit ITP. Alanine substation of Val13 and Trp14 causes a decrease in binding affinity (measured by ΔΔG, where G=Gibbs Energy) of greater than 1,000 fold.
Peptides were stored at −20° C. until the day of use. On the day of use, peptides were removed from the freezer, placed in a 22° C. water bath, shaken, and checked every 30 seconds for thawing. When thawed, the peptides were placed on ice until use. For samples that received a 10× dose of peptide, the following were sequentially added to a 1.5 ml polypropylene Eppendorf tube: 623 μl PBS (pH 7.22), 35 μL rabbit anti-plaletet IgG, and 42 μl peptide, with mixing after each addition. For samples having a 100× dose of peptide, the following were added sequentially to a 1.5 ml polypropylene Eppendorf tube: 245 μl PBS (pH 7.22), 35 μL rabbit anti-plaletet IgG, and 420 μl peptide, with mixing after each addition. The peptides were incubated for at least 30 minutes at 22° C. prior to injection into mice. (A 15 minute incubation in the laboratory, transport of the mixtures to the Vivarium, and injection took roughly an additional 30 minutes.)
The final volume of each peptide mixture was 700 μL, which was sufficient for injection of 3 mice (200 μl/mouse, plus 100 μl to cover dead volume). For the 10× dose/mouse of peptide, 12 μg of peptide (12 μl of 1 mg/ml solution) was mixed with 100 μg of the rabbit anti-platelet IgG (10 μl of 10 mg/ml solution). The volume of 700 μl was about 3.5× the volume injected per mouse (200 μl). To obtain the dose of peptide and rabbit IgG for the 700 μl final volume, dose of peptide or Rabbit IgG per mouse was multiplied by 3.5 (e.g., 12 μl peptide/mouse×3.5=42 μl, 10 μl Rabbit IgG/mouse×3.5=35 μl). PBS (623 μl, pH 7.22) was added to make up the final volume 700 μl. […]

[6] = biological target: PAP complex: preformed immune complex of peroxidase and rabbit anti-peroxidase IgG (horseradish) (UniProt P00433); assay: reverse ELISA competition: PAP pre-incubated with peptide, then on plate coated with FcγIIIa; signal is PAP left bound to the receptor
Chain of UniProt P00433 (P00433 31-338, one chain of several): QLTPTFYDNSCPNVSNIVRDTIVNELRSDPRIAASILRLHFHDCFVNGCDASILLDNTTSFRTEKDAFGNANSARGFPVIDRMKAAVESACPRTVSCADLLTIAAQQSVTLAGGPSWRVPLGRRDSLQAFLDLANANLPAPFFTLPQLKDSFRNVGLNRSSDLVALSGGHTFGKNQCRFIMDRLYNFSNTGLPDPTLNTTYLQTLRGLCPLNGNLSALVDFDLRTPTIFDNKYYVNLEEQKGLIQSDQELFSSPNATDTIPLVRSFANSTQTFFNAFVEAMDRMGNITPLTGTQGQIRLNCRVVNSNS

[7] = biological target: PAP complex: preformed immune complex of peroxidase and rabbit anti-peroxidase IgG (horseradish) (UniProt P00433); assay: reverse ELISA competition: PAP pre-incubated with peptide, then on C1q-coated plate; signal is PAP left bound to immobilised human C1q (lower = more inhibition)
[8] = biological target: PAP complex: preformed immune complex of peroxidase and rabbit anti-peroxidase IgG (horseradish) (UniProt P00433); assay: reverse ELISA competition: PAP pre-incubated with peptide, then on plate coated with FcγIIb; signal is PAP left bound to the receptor
[9] = biological target: PAP complex: preformed immune complex of peroxidase and rabbit anti-peroxidase IgG (horseradish) (UniProt P00433); assay: reverse ELISA competition: PAP pre-incubated with peptide, then on plate coated with FcγIIa (R131 allele); signal is PAP left bound to the receptor
[10] = ITP + 10X molar amount of peptide
[11] = ITP + 100X molar amount of peptide

APPCAWHLGELVWCT (cysteine pairing not given here) [SEQ ID NO:14]
OD405 FcγIIb [1]: 0.562
OD405 FcγIIIa [2]: 0.530
OD405 FcγIIa (R131 allele) [3]: 0.658
OD 405 nm [4]: 1.148

APPCARHLGELVWCT (cysteine pairing not given here) [SEQ ID NO:16]
OD405 FcγIIb [1]: 0.768
OD405 FcγIIIa [2]: 0.709
OD405 FcγIIa (R131 allele) [3]: 0.956
OD 405 nm [4]: 0.567
Inhibition of C1q binding (ranking in words) ([4]; summary of Table 1): next best result

APPDCAAHLGELAACT [SEQ ID NO:57, reference compound]
Platelet counts, individual mice ([5]; ITP + 10X molar amount of peptide, listed as CP): 1.99e+11 L⁻¹ and 1.91e+11 L⁻¹ and 1.43e+11 L⁻¹
Platelet counts, mean [5, 10]: 1.777e+11 L⁻¹
Platelet counts, individual mice ([5]; ITP + 100X molar amount of peptide, listed as CP): 1.55e+11 L⁻¹ and 1.6e+11 L⁻¹ and 1.79e+11 L⁻¹
Platelet counts, mean [5, 11]: 1.647e+11 L⁻¹
Effect on induced ITP [5]: no effect

APPCAFHLGELVWCT (cysteine pairing not given here) [SEQ ID NO:18]
OD405 FcγIIb [1]: 0.380
OD405 FcγIIIa [2]: 0.880
OD405 FcγIIa (R131 allele) [3]: 0.605
OD 405 nm [4]: 0.983

Asp-Cys-Ala-Trp-His-Leu-Gly-Glu-Leu-Val-Trp-Cys-Thr [SEQ ID NO:2]
OD405 FcγIIb [1]: 0.532
OD405 FcγIIIa [2]: 0.741
OD405 FcγIIa (R131 allele) [3]: 0.561
OD 405 nm [4]: 1.100
Platelet counts, individual mice ([5]; ITP + 10X molar amount of peptide, listed as BP): 1.63e+11 L⁻¹ and 1.17e+11 L⁻¹ and 2.33e+11 L⁻¹
Platelet counts, mean [5, 10]: 1.71e+11 L⁻¹
Platelet counts, individual mice ([5]; ITP + 100X molar amount of peptide, listed as BP): 1.55e+11 L⁻¹ and 1.25e+11 L⁻¹ and 1.94e+11 L⁻¹
Platelet counts, mean [5, 11]: 1.58e+11 L⁻¹
Effect on induced ITP [5]: no effect

Asp-Cys-Ala-Phe-His-Leu-Gly-Glu-Leu-Val-Trp-Cys-Thr (DCAFHLGELVWCT) [SEQ ID NO:3]
OD405 FcγIIb [1]: 0.510
OD405 FcγIIIa [2]: 0.810
OD405 FcγIIa (R131 allele) [3]: 0.660
OD 405 nm [4]: 0.859

APPCAFHLGELVWCT [Peptide … (SEQ ID NO:18)]
OD405 [6]: 0.88 OD405
OD 405 nm [7]: 0.983 OD 405 nm
OD405 [8]: 0.38 OD405
OD405 [9]: 0.605 OD405

DCAFHLGELVWCT [Peptide … (SEQ ID NO:3)]
OD405 [6]: 0.81 OD405
OD 405 nm [7]: 0.859 OD 405 nm
OD405 [8]: 0.51 OD405
OD405 [9]: 0.66 OD405

APPCARHLGELVWCT [Peptide … (SEQ ID NO:16)]
OD405 [6]: 0.709 OD405
OD 405 nm [7]: 0.567 OD 405 nm
OD405 [8]: 0.768 OD405
OD405 [9]: 0.956 OD405

APPCAWHLGELVWCT [Peptide … (SEQ ID NO:14)]
OD405 [6]: 0.53 OD405
OD 405 nm [7]: 1.15 OD 405 nm
OD405 [8]: 0.562 OD405
OD405 [9]: 0.658 OD405
